Laboratory results: patent US12291502B2, “Topoisomerase II-alpha inhibitors and methods of treating cancer using the same” (The Regents of the University of Colorado, priority 2019, dated 2025)
Several values for one entry are separate records, joined by “and”; a condition that tells them apart may be missing. Equal entries are not always repeated. Entries after “also recorded” stand apart in the source; their conditions may differ. Where two headings read alike, the source gives them in different places.

Experiments:
Human TOP2A = target: T1, Human TOP2A (Homo sapiens, UniProt P11388); assay: TOP2A DNA decatenation assay (kDNA, agarose gel); format: biochemical; conditions: for inhibition at 30 µM: 1 h, read-out: % Inhibition TOP2A (30 μM); for inhibition at 30 µM / % Inhibition TOP2A (30 μM): decatenation, 30 μM fixed concentration; for IC50: decatenation dose response; for TOP2A inhibition, result in words: decatenation screen at 30 μM
T1 construct: purchased TopoGEN (Buena Vista, CO)
Procedure: Inhibition of TOP2A activity. Human TOP2A, kDNA, and assay buffers were obtained from TopoGEN (Buena Vista, CO). The synthesized compounds were screened for their TOP2A inhibitory activity by the intensity of DNA decatenation bands on a DNA gel when compared to the vehicle. Compounds were initially incubated with TOP2A (3 U/reaction) for 20 min at a 30 μM and 1.2% DMSO concentration in a 37° C. incubator without CO2.
The decatenation reaction was initiated immediately after by adding 2 mM ATP and 35 ng/reaction of kDNA, then incubated for 1 hour in a 37° C. water bath. The samples were loaded into a 0.8% agarose gel in 1× Tris-Borate-EDTA (TBE) at a 0.2 μg/mL ethidium bromide concentration and allowed to run in an electrophoretic chamber for 1 hour at 100V. Compounds with the highest inhibitory activity were selected for 2-fold serial dilution dose-response assays (58.6 nM-30 μM). The dose-response assays followed the same protocol with the exception of 4 U/reaction of TOP2A.
Inhibition studies of TOP2A and observed structure activity relationships (SAR). DNA catenation/decatenation or linking/unlinking of DNA is one of the main TOP2A functions essential for regulating DNA topology, and this is ATP dependent. […] Thus, as a starting point, the synthesized analogs were screened against TOP2A-dependent decatenation using 30 μM fixed concentrations, and the DNA from reactions were resolved on 0.8% agarose gels containing ethidium bromide.
Moreover, these studies provided interesting SAR, which shed light on the potential lead drug target binding interactions and affinity, biological activity, and future drug design optimization with this unique class of TOP2A inhibitors.
(§1) TOP2A decatenation assay. Human TOP2A, kDNA, and assay buffers were obtained from TopoGEN (Buena Vista, CO). The synthesized compounds were screened for their TOP2A inhibitory activity by the intensity of DNA decatenation bands on a DNA gel when compared to the vehicle. Compounds were initially incubated with TOP2A (3 U/reaction) for 20 min at a 30 μM and 1.2% DMSO concentration in a 37° C. incubator without CO2. The decatenation reaction was initiated immediately after by adding 2 mM ATP and 35 ng/reaction of kDNA, then incubated for 1 h in a 37° C. water bath. The samples were loaded into a 0.8% agarose gel in 1× Tris-Borate-EDTA (TBE) at a 0.2 μg/mL ethidium bromide concentration and allowed to run in an electrophoretic chamber for 1 h at 100V. Compounds with the highest inhibitory activity were selected for 2-fold serial dilution dose-response assays (58.6 nM-30 μM). The dose-response assays followed the same protocol with the exception of 4 U/reaction of TOP2A,
as §1, with “assays (53.6” for “assays (58.6”, “of TOP2A.” for “of TOP2A,”

[1] = system: TOP2A-dependent TCF-transcription in SW620-TOP tumor organoids; assay: TCF (TOPflash) reporter assay in 3D tumor organoids; format: cell-based; conditions: for IC50: 72 hours
Procedure: TCF reporter assay in 3D Tumor organoid. Stable engineered cells containing pCDH-TOPflash-luc-EF1-puro were used to generate tumor organoid arrayed in 96-well plates and treated for 72 hours. One-Glo™ luciferase reagent and CellTiter-Glo™ 3D cell viability reagent (Promega) were used to determine the TCF reporter activity in viable cells.
After characterizing 3 and 7 as TOP2A ATP-competitive inhibitors, these compounds were next tested for their ability to inhibit TOP2A-dependent TCF-transcription using the well characterized TOPflash (TOP) luminescent reporter, which was used to generate a stably transduced SW620-TOP reporter cells as described previously (Zhou, et al., Oncogene 2016, 35:4990-9). These cells were used to generate single 3D tumor organoids (700 μm in diameter) uniformly arrayed in 96-well plates, which mimic aspects of tumor function observed in vivo. […] Like neo, the mode of action of compounds 3 and 7 also results in significant antitumor activity (FIGS. 3E-3H). […] In other words, the activity of 3 and 7 is long lasting, suppressing CSC stemness and related tumorigenicity. EMT is a major driving force promoting tumor cell invasion and metastasis. […] Tumor organoids were dissociated, and viable cells were washed and plated into the top chamber of 96-well invasion plate coated with Matrigel and incubated for an additional 72 hours without adding any additional compound. […] Taken together, the biological activity of 3 and 7 is consistent with the activity of neo, inhibiting TOP2A-dependent TCF-transcription that in turn reverses EMT while inhibiting the associated tumorigenic properties of mCRC.
A similar trend in IC50 values was observed compared to TOP2A enzyme studies, further supporting our proposed mechanism of action as inhibition of TOP2A-dependent TCF-transcription.
3D Tumor organoid TOPflash reporter assay. […] 35(38): p. 4990-9.] were used to generate tumor organoids arrayed in 96-well plates and treated for 72 h with TOP2A inhibitors. One-Glo™ luciferase reagent and CellTiter-Glo™ 3D cell viability reagent (Promega, WI) were used to determine the TCF reporter activity in viable cells. Briefly, reagents were added to the spheroids at 1:1 ratio (v:v) and the plates were placed on an orbital shaker (300 rpm) for 10 min at room temperature before the luminescence was read with Envision plate reader (PerkinElmer, MA). TCF reporter activity was normalized to organoid viability and inhibitors treated conditions were normalized to DMSO treated controls.

[2] = read-out: IC50 TOP2A inhibition
[3] = Homo sapiens, SW-620, Table 2, SW620 tumor organoids, read-out: % TCP inhibition IC50
[4] = SW620-TOP tumor organoids, read-out: IC50 inhibition of TCF-transcription
[5] = Table 1, read-out: % Inhibition TOP2A (IC50 Values)

T1 sequence (P11388 whole entry): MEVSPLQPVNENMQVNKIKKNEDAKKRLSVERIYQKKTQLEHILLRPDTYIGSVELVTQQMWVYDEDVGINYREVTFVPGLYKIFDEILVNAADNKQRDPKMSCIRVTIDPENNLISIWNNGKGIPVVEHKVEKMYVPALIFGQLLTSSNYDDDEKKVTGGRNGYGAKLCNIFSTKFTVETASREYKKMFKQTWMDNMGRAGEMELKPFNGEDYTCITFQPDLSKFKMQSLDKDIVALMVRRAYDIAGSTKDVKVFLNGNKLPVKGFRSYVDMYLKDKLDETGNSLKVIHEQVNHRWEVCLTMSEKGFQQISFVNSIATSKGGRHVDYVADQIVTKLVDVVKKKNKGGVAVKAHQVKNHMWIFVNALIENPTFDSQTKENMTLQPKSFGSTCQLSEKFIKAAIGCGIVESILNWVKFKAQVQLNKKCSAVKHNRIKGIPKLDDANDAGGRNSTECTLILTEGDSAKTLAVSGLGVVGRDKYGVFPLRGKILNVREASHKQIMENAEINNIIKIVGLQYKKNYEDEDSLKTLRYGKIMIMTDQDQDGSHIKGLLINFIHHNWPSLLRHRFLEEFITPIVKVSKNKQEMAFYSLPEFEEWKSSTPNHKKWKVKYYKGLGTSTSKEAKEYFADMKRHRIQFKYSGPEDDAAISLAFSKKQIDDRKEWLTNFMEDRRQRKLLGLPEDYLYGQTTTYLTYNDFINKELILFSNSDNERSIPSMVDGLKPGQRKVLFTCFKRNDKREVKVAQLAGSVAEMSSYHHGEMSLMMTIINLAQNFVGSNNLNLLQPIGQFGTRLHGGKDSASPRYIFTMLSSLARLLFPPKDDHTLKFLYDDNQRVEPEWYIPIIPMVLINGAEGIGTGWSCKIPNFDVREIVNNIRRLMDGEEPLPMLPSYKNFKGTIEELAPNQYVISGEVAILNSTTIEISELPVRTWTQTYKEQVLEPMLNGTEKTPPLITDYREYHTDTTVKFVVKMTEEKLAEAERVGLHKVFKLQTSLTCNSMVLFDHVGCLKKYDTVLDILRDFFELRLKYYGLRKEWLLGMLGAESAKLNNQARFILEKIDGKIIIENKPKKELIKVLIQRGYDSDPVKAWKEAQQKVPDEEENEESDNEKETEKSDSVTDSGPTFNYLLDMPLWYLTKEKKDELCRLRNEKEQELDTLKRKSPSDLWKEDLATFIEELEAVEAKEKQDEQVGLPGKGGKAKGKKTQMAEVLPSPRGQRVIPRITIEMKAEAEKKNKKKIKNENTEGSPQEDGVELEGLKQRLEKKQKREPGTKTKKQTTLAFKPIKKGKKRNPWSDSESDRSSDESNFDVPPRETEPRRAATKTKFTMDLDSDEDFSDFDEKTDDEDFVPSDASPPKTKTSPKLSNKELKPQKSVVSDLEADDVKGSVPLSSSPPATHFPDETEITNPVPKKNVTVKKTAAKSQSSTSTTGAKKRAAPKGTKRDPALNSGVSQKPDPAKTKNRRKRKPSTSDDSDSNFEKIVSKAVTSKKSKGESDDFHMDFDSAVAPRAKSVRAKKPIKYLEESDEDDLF

| Structure (SMILES) | inhibition at 30 µM (Human TOP2A; Table 1) | IC50 (Human TOP2A; [2]) | IC50 [1, 3] | IC50 [1, 4] | IC50 (Human TOP2A; [5]) | % Inhibition TOP2A (30 μM) (Human TOP2A; Table 1) | IC50 ([1]; Table 2, SW620 tumor organoids, read-out: % TCP inhibition IC50) | TOP2A inhibition, result in words (Human TOP2A) | inhibition of TCF-transcription (TOP-activity), in words ([1]; SW620 tumor organoids, TOPflash reporter) |
| --- | --- | --- | --- | --- | --- | --- | --- | --- | --- |
| O=C(CCN1CCOCC1)Nc1ccc2c(-c3cc(F)ccc3O)ccnc2c1O [Analog 42] | 90% | 0.6 µM | 3.2 µM | 3.2 µM |  |  |  |  |  |
| CC(C)(C)C(=O)Nc1ccc2c(-c3ccccc3)ccnc2c1O [Analog 39] |  | ~1 µM |  |  | 1.3 µM | 97.0% | 4.7 µM |  |  |
| CC(=O)Nc1ccc2c(-c3cc(F)ccc3O)ccnc2c1O [Analog 7] | 99% | 5.81 µM and 5.8 µM | 6 µM |  |  |  |  | complete enzyme inhibition | significantly inhibit TOP-activity; also recorded: significantly inhibit TOP2A-dependent TCF-transcription |
| Cn1ccc2c(c1=O)C(=O)c1nccc3c1C2NC1=CCC=CC13 (stereo not drawn) [neo, neoamphimedine, reference compound] |  |  |  |  |  |  |  | significantly inhibits TOP2A mediated DNA decatenation |  |
| CC(=O)Nc1ccc2c(-c3ccoc3)ccnc2c1O [Analog 56] | 86% |  | 7 µM |  | 6.4 µM |  |  |  |  |
| CC(=O)Nc1ccc(-c2ccnc3c(O)c(NC(C)=O)ccc23)cc1 [Analog 35] |  |  |  | 2 µM | 1.9 µM | 97.0% |  | restored inhibitory activity against TOP2A |  |
